Measured values reported in publication PMC8607231, “Generation of KS-133 as a Novel Bicyclic Peptide with a Potent and Selective VIPR2 Antagonist Activity that Counteracts Cognitive Decline in a Mouse Model of Psychiatric Disorders” (Frontiers in Pharmacology, 2021).
Where a SMILES comes first, the peptide text is derived from it. Bridges are numbered along the chain shown (N, C = ends).

Tested on: VIPR2 activation-induced phosphorylation of CREB
Assay: Western blot of pCREB in prefrontal cortex of neonatal mice after s.c. injection
Format: in vivo, mouse
Details: ICR mice at P12, KS-133 1 nmol/g s.c. simultaneously with Ro 25-1553 0.4 nmol/g, 1 h after injection
Procedure: For western blot analysis, ICR neonatal mice at P12 (7–10 g body weight) were subcutaneously (s.c.) injected with KS-133 (1 nmol/g) and Ro 25-1553 (0.4 nmol/g, Peptide Institute, Inc. Osaka, Japan), a selective VIPR2 agonist ([Gourlet et al., 1997]; [Harmar et al., 2012]), and adult C57BL/6J mice at 8 weeks of age (20–30 g body weight) were intranasally (i.n.) injected with KS-133 (20 nmol/mouse) and BAY 55-9837 (20 µg/mouse, Tocris Bioscience, Bristol, United Kingdom), another selective VIPR2 agonist ([Tsutsumi et al., 2002]; [Tian et al., 2019]). The dosages of these drugs were determined in a preliminary experiment using the change in phosphorylation of cAMP-response element-binding protein (CREB) as an index. Ro 25-1553 was dissolved in phosphate-buffered saline (PBS) and BAY 55-9837 was dissolved in distilled water. KS-133 was dissolved in saline with 1% dimethyl sulfoxide (DMSO; #13445-74, Nacalai Tesque, Inc., Kyoto, Japan) for s.c. injection or saline with 5% DMSO and 5 mg/ml poly-L-arginine (#P7762, Sigma-Aldrich, St. Louis, MO, United States) for i.n. injection. […]
FIGURE 4 Effects of subcutaneous (A) and intranasal (B) administration of KS-133 on VIPR2 activation-induced phosphorylation of CREB in the prefrontal cortex of mice. Phospho-CREB (pCREB), total CREB, and β-actin levels were analyzed by western blotting. […]

Question: Which “Effect on Ro 25-1553-induced increase in CREB phosphorylation” value does the source give for CC[C@H](C)[C@H](NC(=O)[C@H](CC(C)C)NC(=O)[C@@H]1CC(=O)NCCCC[C@@H]2NC(=O)[C@@H]3CCCN3C(=O)[C@H](CC(C)C)NC(=O)[C@H](Cc3ccc(O)cc3)NC(=O)[C@@H]3CCCN3C(=O)[C@@H]3CCCN3C(=O)[C@@H](NC(C)=O)CSSC[C@H](NC(=O)[C@H](CC(C)C)NC(=O)[C@H](Cc3ccc(O)cc3)NC2=O)C(=O)N1)C(N)=O [KS-133, Ac-c[Cys-Pro-Pro-Tyr-Leu-Pro-c(Lys-Tyr-Leu-Cys]-Asp)-Leu-Ile-NH2] (Ac-CPPYLPKYLCDLI-NH2; disulfide 1-10; lactam 7-11) here?
Answer: The value was “suppressed the Ro 25-1553-induced increase in CREB phosphorylation”.
